Measurements published in US6323001A, “Increasing the trehalose content of organisms by transforming them with combinations of the structural genes for trehalose synthase” (BTG International Ltd., priority 1994, dated 2001).
pEC50: −log10 of the molar value. Read-outs that look alike come from different tables or passages of the source.

Target: T1, Tre6Pase activity of intact trehalose synthase (Saccharomyces cerevisiae, UniProt P31688)
T1 construct: Intact trehalose synthase was purified from commercial baker's yeast; made in house; host or cells: commercial baker's yeast (native enzyme purified, not recombinant)
T1 sequence (P31688 1-896): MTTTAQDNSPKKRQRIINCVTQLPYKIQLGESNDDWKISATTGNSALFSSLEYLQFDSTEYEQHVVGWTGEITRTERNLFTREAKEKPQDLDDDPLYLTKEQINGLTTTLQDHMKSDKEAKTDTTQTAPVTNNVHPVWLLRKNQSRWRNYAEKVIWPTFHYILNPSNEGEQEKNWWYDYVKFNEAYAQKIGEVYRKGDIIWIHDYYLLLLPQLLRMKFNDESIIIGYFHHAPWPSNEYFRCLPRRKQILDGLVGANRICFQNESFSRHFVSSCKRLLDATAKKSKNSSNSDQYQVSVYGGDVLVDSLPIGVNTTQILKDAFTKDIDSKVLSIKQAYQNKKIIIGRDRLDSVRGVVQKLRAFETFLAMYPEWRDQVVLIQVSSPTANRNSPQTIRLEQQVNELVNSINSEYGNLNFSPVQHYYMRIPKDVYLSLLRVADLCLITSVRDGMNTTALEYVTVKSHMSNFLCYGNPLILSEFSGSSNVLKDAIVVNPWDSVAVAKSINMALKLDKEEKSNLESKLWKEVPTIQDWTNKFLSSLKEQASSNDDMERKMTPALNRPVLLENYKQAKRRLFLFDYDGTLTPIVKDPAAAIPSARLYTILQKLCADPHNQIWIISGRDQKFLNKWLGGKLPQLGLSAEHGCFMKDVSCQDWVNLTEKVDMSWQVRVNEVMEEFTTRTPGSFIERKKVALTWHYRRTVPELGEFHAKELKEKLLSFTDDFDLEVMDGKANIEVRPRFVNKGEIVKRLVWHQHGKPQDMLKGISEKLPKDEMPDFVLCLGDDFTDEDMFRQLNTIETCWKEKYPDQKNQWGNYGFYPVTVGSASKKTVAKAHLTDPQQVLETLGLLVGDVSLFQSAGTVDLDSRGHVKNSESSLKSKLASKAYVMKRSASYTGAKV
T1 sequence (Q00764 1-495 partner): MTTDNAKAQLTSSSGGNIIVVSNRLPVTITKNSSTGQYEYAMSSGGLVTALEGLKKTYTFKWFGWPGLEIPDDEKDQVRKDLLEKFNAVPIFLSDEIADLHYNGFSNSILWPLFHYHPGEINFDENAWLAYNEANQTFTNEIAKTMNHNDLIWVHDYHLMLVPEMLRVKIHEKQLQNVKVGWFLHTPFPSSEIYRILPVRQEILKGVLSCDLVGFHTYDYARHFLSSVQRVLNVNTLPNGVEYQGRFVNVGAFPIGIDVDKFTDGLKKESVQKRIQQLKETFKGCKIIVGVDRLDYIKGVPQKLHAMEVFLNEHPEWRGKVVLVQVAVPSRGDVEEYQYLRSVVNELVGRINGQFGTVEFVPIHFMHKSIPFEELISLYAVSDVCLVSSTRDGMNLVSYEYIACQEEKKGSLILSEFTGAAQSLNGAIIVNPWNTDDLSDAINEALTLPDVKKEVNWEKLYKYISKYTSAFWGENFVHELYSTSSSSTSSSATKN
T1 sequence (P38427 1-1098 partner): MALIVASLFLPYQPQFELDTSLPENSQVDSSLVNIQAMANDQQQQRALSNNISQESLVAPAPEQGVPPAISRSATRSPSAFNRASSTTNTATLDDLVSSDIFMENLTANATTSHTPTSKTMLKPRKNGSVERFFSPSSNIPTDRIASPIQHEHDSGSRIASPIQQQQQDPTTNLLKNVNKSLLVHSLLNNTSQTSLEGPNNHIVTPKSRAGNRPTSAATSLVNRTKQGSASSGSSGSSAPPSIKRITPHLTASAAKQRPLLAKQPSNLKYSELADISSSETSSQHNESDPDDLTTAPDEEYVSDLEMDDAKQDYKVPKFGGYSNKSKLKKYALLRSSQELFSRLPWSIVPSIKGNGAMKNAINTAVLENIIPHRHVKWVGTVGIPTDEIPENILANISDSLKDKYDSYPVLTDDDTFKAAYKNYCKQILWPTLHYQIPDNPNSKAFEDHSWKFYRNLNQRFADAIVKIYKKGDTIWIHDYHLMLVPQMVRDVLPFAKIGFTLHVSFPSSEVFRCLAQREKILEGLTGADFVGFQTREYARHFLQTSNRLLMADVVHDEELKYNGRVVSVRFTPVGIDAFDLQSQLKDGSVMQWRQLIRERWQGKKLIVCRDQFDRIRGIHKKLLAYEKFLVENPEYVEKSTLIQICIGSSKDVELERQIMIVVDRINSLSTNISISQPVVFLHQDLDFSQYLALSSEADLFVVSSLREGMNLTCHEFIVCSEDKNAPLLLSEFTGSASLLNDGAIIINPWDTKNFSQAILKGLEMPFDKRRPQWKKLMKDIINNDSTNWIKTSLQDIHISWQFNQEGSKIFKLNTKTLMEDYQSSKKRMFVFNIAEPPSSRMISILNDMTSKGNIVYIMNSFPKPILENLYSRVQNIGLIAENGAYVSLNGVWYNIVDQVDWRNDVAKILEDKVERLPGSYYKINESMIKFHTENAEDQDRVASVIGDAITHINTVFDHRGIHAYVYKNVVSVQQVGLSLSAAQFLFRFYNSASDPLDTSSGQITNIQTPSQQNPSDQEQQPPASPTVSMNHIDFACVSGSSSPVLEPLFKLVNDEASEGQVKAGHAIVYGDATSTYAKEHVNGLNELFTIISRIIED
Assay: Tre6Pase assay of intact trehalose synthase
Type: biochemical, baker's yeast
Experimental: With microbial materials, Tre6Pase and Tre6P synthase standard assays and other kinetic measurements were made as described by Londesborough & Vuorio [(1991) loc. cit.] except that the standard Tre6P synthase assay mixture contained 5 mM F6P unless stated otherwise.
In one experiment intact trehalose synthase (0.28 Tre6P synthase units, ≈9.4 μg) was incubated with or without 0.5 μg of trypsin at 30° C. in 250 μl of 13 mM HEPES pH 7.0 containing 1 mM MgCl2, 0.5 mM EDTA, 0.5 mM dithiothreitol, 0.2 M NaCl and 0.5 mM benzamidine. Its Tre6P synthase activity was determined at intervals using standard assay mixtures (containing 5 mM F6P) containing no or 4 mM K phosphate pH 6.8, and samples were prepared for SDS-PAGE analysis immediately before and 48 min after addition of the trypsin.
Intact trehalose synthase was prepared as in Example 1. Kinetic assays were done at 30° C. as described in General Methods and Materials.

O=C(CO)[C@@H](O)[C@H](O)[C@H](O)COP(=O)(O)O [Transformant F6P, Fructose 6-phosphate]
effect on Tre6Pase activity (in the absence of phosphate, intact enzyme): did not affect
inhibition at 5000 µM (read-out: inhibition of Tre6Pase activity, 5 mM F6P, saturating phosphate concentrations, intact enzyme): 10 to 15%
inhibition at 5000 µM (read-out: inhibition of Tre6Pase activity, 5 mM F6P, sub-optimal phosphate concentrations, intact enzyme): 20 to 30%

O=P(O)(O)O [phosphate, K phosphate]
pEC50 (initial rates, intact enzyme, read-out: half maximal activation of Tre6Pase by phosphate): 3.22
